Counter-ions that a name gives are not always drawn.
What was measured:
[1] = system: pressor effects of angiotensin I; assay: intravenous effectiveness: blood pressure response to angiotensin I in anesthetized rats; format: in vivo, rat; details: for t1/2: recovery of one half of lost responsiveness to angiotensin I 400 ng/kg
Procedure: (§1) Anesthetized rats were prepared as described in Example 228. After the responsiveness of a given rat to angiotensin I was established, the named compound at 2 μmol/kg, in a volume of 15 μl of 0.01N sodium bicarbonate, was injected via a femoral vein. At timed intervals, the effects of angiotensin I, 400 ng/kg, on mean arterial blood pressure were tested. Results are shown below:
as §1, with “231.” for “228.”, “compound,” for “compound”
Anesthetized rats were prepared as described in Example 239. The animals were administered the named compound via a femoral vein in 15 μl of 0.01N sodium bicarbonate, after the control response to 400 ng/kg of angiotensin I was measured. […] The time required for recovery of one half of the lost responsiveness to angiotensin I, following injection of the named compound, was designated t1/2. […] Results are shown for two dose levels:
Anesthetized rats were prepared as described in Example 242. The named compound was administered intravenously via a femoral vein, at the stated dose, in 15 μl of 0.01N sodium bicarbonate. The response to intravenous administration was a rapid decrease in responsiveness to Angtiotensin I, 400 ng/kg, followed by a gradual recovery to the pretreatment level of responsiveness. The time required for recovery of one half the lost responsiveness to angiotensin I, following injection of the named compound, is designated t1/2. […] Results are shown for the three dose levels:
The intravenous effectiveness of the named compound was examined by following the procedure described in Example 244 except that 1 μmole/kg of the drug was given intravenously. The results are shown below:
The intravenous effectiveness of the named compound was examined by following the procedure described in Example 246 except that 1 μmole/Kg of the drug was given intravenously.

[2] = system: pressor effects of angiotensin I; assay: oral effectiveness: blood pressure response to angiotensin I in anesthetized rats; format: in vivo, rat
Procedure: Rats (210-290 g body weight) were fasted overnight and then anesthetized with intraperitoneal pentobarbital, 50-60 mg/kg. Tracheostomy was performed and the animals were ventilated mechanically. A cannula was inserted into a femoral vein for injection of angiotensin I or II, and a second cannula was inserted into a common carotid artery for direct measurement of arterial blood pressure. Heparin, 1,000 units, was injected via the femoral vein to prevent coagulation. Blood pressure was measured with a pressure transducer connected to a polygraph. The rats were injected with 80 ng of angiotensin I or angiotensin II in 20 μl of 0.9 g % NaCl; an amount of antiotensin I or II sufficient to raise mean arterial blood pressure by 27-40 mm Hg. After the responsiveness of a given rat to angiotensins I and II was established, compound (I), at 2 or 5 mg/kg (drug dissolved in 0.5 ml of H2 O plus 10 μl of 1N NaHCO3), was given via a stomach tube. At timed intervals, the effects of 80 ng of angiotensin I or angiotensin II on mean arterial blood pressure were tested.
Rats were prepared as described in Example 222. Compound (II) [N-benzoyl-L-phenylalanylthiopropanoyl)-L-proline] was given orally, via a stomach tube, at a dose of 12 mg/kg or 20 mg/kg. Compound (II) was dissolved in 0.5 ml of H2 O plus 10 μl of 1N NaHCO3. In all other respects, the experimental preparations were exactly as described in Example 222.
Rats (210-290 g body weight) were fasted overnight and then anesthetized with intraperitoneal pentobarbital, 50-60 mg/kg. Tracheostomy was performed and the animals were ventilated mechanically. A cannula was inserted into a femoral vein for injection of angiotensin I or II, and a second cannula was inserted into a common carotid artery for direct measurement of arterial blood pressure. Heparin, 1,000 units, was injected via the femoral vein to prevent coagulation. Blood pressure was measured with a pressure transducer connected to a polygraph. The rats were injected with 160 ng of angiotensin I or 80 ng of angiotensin II in 20 μl of 0.9 g % NaCl; an amount of angiotensin I or II sufficient to raise mean arterial blood pressure by 27-40 mm Hg. After the responsiveness of a given rat to angiotensins I and II was established, compound (B) at 10 mg (drug dissolved in 0.5 ml of H2 O plus 10 μl of 1N NaHCO3), was given via a stomach tube. At timed intervals, the effects of 160 ng of angiotensin I or 80 ng of angiotensin II on mean arterial blood pressure were tested. Results are shown below:
Rats (210-290 g body weight) were fasted overnight and then anesthetized with intraperitoneal pentobarbital, 50-60 mg/kg. Tracheostomy was performed and the animals were ventilated mechanically. A cannula was inserted into a femoral vein for injection of angiotensin I, and a second cannula was inserted into a common carotid artery for direct measurement of arterial blood pressure. Heparin, 1,000 units, was injected via the femoral vein to prevent coagulation. Blood pressure was measured with a pressure transducer connected to a polygraph. The rats were injected with 400 ng/kg of angiotensin I in 20 μl of 0.9 g % NaCl; an amount of angiotensin I sufficient to raise mean arterial blood pressure by 39 mm Hg. After the responsiveness of a given rat to angiotensin I was established, the named compound at 17 μmol/kg (drug dissolved in 0.15 ml of H2 O plus 10 μl of 1N NaHCO3), was given via a stomach tube. At timed intervals, the effects of 400 ng/kg of angiotensin I on mean arterial blood pressure were tested. Results are shown below:
Rats (190-290 g body weight) were fasted overnight and then anesthetized with intraperitoneal pentobarbital, 50-60 mg/kg. Tracheostomy was performed and the animals were ventilated mechanically. A cannula was inserted into a femoral vein for injection of angtiotensin I, and a second cannula was inserted into a common carotid artery for direct measurement of arterial blood pressure. […]

`C[C@H](CSC(=O)CNC(=O)c1ccccc1)C(=O)N1CCC[C@H]1C(=O)O` [N-alpha-[3-(N-alpha-benzoylglycylthio)-2-D-methylpropanoyl]-L-proline] was tested, and the t1/2 ([1]; i.v. 0.23 μmol/kg) was 26 min, the t1/2 ([1]; i.v. 0.7 μmol/kg) was 36 min and the “Blood Pressure Response to 400 ng/kg of Angiotensin I” value (shortened to “Blood Pressure Response to 400 ng/kg”) ([2]; oral 20 μmol/kg, 1 min, Ex. 239) was 95 % of Control. The “Blood Pressure Response to 400 ng/kg” value ([2]; oral 20 μmol/kg, 6 min, Ex. 239) was 95 % of Control, the “Blood Pressure Response to 400 ng/kg” value ([2]; oral 20 μmol/kg, 11 min, Ex. 239) was 95 % of Control and the “Blood Pressure Response to 400 ng/kg” value ([2]; oral 20 μmol/kg, 22 min, Ex. 239) was 92 % of Control. The “Blood Pressure Response to 400 ng/kg” value ([2]; oral 20 μmol/kg, 28 min, Ex. 239) was 68 % of Control, the “Blood Pressure Response to 400 ng/kg” value ([2]; oral 20 μmol/kg, 33 min, Ex. 239) was 61 % of Control and the “Blood Pressure Response to 400 ng/kg” value ([2]; oral 20 μmol/kg, 39 min, Ex. 239) was 58 % of Control. The “Blood Pressure Response to 400 ng/kg” value ([2]; oral 20 μmol/kg, 45 min, Ex. 239) was 47 % of Control, the “Blood Pressure Response to 400 ng/kg” value ([2]; oral 20 μmol/kg, 60 min, Ex. 239) was 47 % of Control and the “Blood Pressure Response to 400 ng/kg” value ([2]; oral 20 μmol/kg, 67 min, Ex. 239) was 45 % of Control. For the same compound, the “Blood Pressure Response to 400 ng/kg” value ([2]; oral 20 μmol/kg, 74 min, Ex. 239) was 47 % of Control, the “Blood Pressure Response to 400 ng/kg” value ([2]; oral 20 μmol/kg, 82 min, Ex. 239) was 47 % of Control and the “Blood Pressure Response to 400 ng/kg” value ([2]; oral 20 μmol/kg, 92 min, Ex. 239) was 47 % of Control. The “Blood Pressure Response to 400 ng/kg” value ([2]; oral 20 μmol/kg, 137 min, Ex. 239) was 55 % of Control, the “Blood Pressure Response to 400 ng/kg” value ([2]; oral 20 μmol/kg, 142 min, Ex. 239) was 55 % of Control and the “Blood Pressure Response to 400 ng/kg” value ([2]; oral 20 μmol/kg, 152 min, Ex. 239) was 47 % of Control. The “Blood Pressure Response to 400 ng/kg” value ([2]; oral 20 μmol/kg, 185 min, Ex. 239) was 63 % of Control, the “Blood Pressure Response to 400 ng/kg” value ([2]; oral 20 μmol/kg, 207 min, Ex. 239) was 79 % of Control and the “Blood Pressure Response to 400 ng/kg” value ([2]; oral 20 μmol/kg, 230 min, Ex. 239) was 74 % of Control.

For `C[C@H](CSC(=O)C(Cc1ccccc1)NC(=O)c1ccccc1)C(=O)N1CCC[C@H]1C(=O)O` (stereo partly drawn) [potassium salt of N-alpha[3-(N-alpha-benzoyl-D,L-phenylalanylthio)-2-D-methylpropanoyl]-L-proline], the “Blood Pressure Response to 400 ng/kg” value ([1]; i.v. 1 μmole/Kg, 5 min, Ex. 247) was 46 % of Control, the “Blood Pressure Response to 400 ng/kg” value ([1]; i.v. 1 μmole/Kg, 10 min, Ex. 247) was 37 % of Control and the “Blood Pressure Response to 400 ng/kg” value ([1]; i.v. 1 μmole/Kg, 15 min, Ex. 247) was 41 % of Control. The “Blood Pressure Response to 400 ng/kg” value ([1]; i.v. 1 μmole/Kg, 20 min, Ex. 247) was 37 % of Control, the “Blood Pressure Response to 400 ng/kg” value ([1]; i.v. 1 μmole/Kg, 30 min, Ex. 247) was 44 % of Control and the “Blood Pressure Response to 400 ng/kg” value ([1]; i.v. 1 μmole/Kg, 40 min, Ex. 247) was 50 % of Control. For the same compound, the “Blood Pressure Response to 400 ng/kg” value ([1]; i.v. 1 μmole/Kg, 50 min, Ex. 247) was 39 % of Control, the “Blood Pressure Response to 400 ng/kg” value ([1]; i.v. 1 μmole/Kg, 60 min, Ex. 247) was 46 % of Control and the “Blood Pressure Response to 400 ng/kg” value ([1]; i.v. 1 μmole/Kg, 90 min, Ex. 247) was 52 % of Control. The “Blood Pressure Response to 400 ng/kg” value ([1]; i.v. 1 μmole/Kg, 120 min, Ex. 247) was 59 % of Control.

With `C[C@H](CSC(=O)[C@@H](N)CCC(=O)O)C(=O)N1CCC[C@H]1C(=O)O` [N-alpha-[3-(L-alpha-glutamylthio)-2-D-methyl-propanoyl]-L-proline] the “Blood Pressure Response to 400 ng/kg” value ([1]; i.v. 1 μmole/kg, 0.5 min, Ex. 245) was 13 % of Control, the “Blood Pressure Response to 400 ng/kg” value ([1]; i.v. 1 μmole/kg, 3 min, Ex. 245) was 13 % of Control and the “Blood Pressure Response to 400 ng/kg” value ([1]; i.v. 1 μmole/kg, 7 min, Ex. 245) was 13 % of Control. The “Blood Pressure Response to 400 ng/kg” value ([1]; i.v. 1 μmole/kg, 11 min, Ex. 245) was 21 % of Control, the “Blood Pressure Response to 400 ng/kg” value ([1]; i.v. 1 μmole/kg, 22 min, Ex. 245) was 21 % of Control and the “Blood Pressure Response to 400 ng/kg” value ([1]; i.v. 1 μmole/kg, 28 min, Ex. 245) was 18 % of Control. The “Blood Pressure Response to 400 ng/kg” value ([1]; i.v. 1 μmole/kg, 37 min, Ex. 245) was 29 % of Control, the “Blood Pressure Response to 400 ng/kg” value ([1]; i.v. 1 μmole/kg, 47 min, Ex. 245) was 37 % of Control and the “Blood Pressure Response to 400 ng/kg” value ([1]; i.v. 1 μmole/kg, 56 min, Ex. 245) was 39 % of Control. For the same compound, the “Blood Pressure Response to 400 ng/kg” value ([1]; i.v. 1 μmole/kg, 82 min, Ex. 245) was 53 % of Control, the “Blood Pressure Response to 400 ng/kg” value ([1]; i.v. 1 μmole/kg, 92 min, Ex. 245) was 71 % of Control and the “Blood Pressure Response to 400 ng/kg” value ([2]; oral 10 μmol/kg, 9 min, Ex. 244) was 66 % of Control. The “Blood Pressure Response to 400 ng/kg” value ([2]; oral 10 μmol/kg, 18 min, Ex. 244) was 39 % of Control, the “Blood Pressure Response to 400 ng/kg” value ([2]; oral 10 μmol/kg, 26 min, Ex. 244) was 39 % of Control and the “Blood Pressure Response to 400 ng/kg” value ([2]; oral 10 μmol/kg, 33 min, Ex. 244) was 26 % of Control. For the same compound, the “Blood Pressure Response to 400 ng/kg” value ([2]; oral 10 μmol/kg, 39 min, Ex. 244) was 18 % of Control, the “Blood Pressure Response to 400 ng/kg” value ([2]; oral 10 μmol/kg, 45 min, Ex. 244) was 18 % of Control and the “Blood Pressure Response to 400 ng/kg” value ([2]; oral 10 μmol/kg, 53 min, Ex. 244) was 13 % of Control. The “Blood Pressure Response to 400 ng/kg” value ([2]; oral 10 μmol/kg, 64 min, Ex. 244) was 13 % of Control, the “Blood Pressure Response to 400 ng/kg” value ([2]; oral 10 μmol/kg, 77 min, Ex. 244) was 26 % of Control and the “Blood Pressure Response to 400 ng/kg” value ([2]; oral 10 μmol/kg, 89 min, Ex. 244) was 26 % of Control. The “Blood Pressure Response to 400 ng/kg” value ([2]; oral 10 μmol/kg, 111 min, Ex. 244) was 24 % of Control and the “Blood Pressure Response to 400 ng/kg” value ([2]; oral 10 μmol/kg, 125 min, Ex. 244) was 26 % of Control.

Source: patent US4745124A, “Orally effective anti-hypertensive agents” (priority 1983, dated 1988)
